Columns and labels:
[1] = tested on: Echinochloa crus-galli; assay: Foliar spray on potted weeds at two to three leaf stage in greenhouse, herbicidal effect (Example 101); type: in vivo, inubie (common barnyardgrass; Echinochloa crus-galli); conditions: one week after spray
Procedure: (§1) A plastic pot was filled with a commercially-available culture soil, and thereto inubie (common barnyardgrass; Echinochloa crus-galli) or akinoenokorogusa (giant foxtail; Setaria faberi) was seeded, and covered with the soil to about 0.5 cm, followed by growing the weeds in a greenhouse. When the weeds grew to two to three leaf stage, a spray liquid of the compound X, a spray liquid of pyroxasulfone, or a spray liquid of the present composition was uniformly sprayed to the whole plants so that the application rate might be a predetermined value. The spray liquid of the present composition was prepared by mixing the spray liquid of the compound X with the spray liquid of pyroxasulfone. The spray liquid of the compound X was prepared by mixing a predetermined amount of the formulation X with deionized water. The spray liquid of pyroxasulfone was prepared by dissolving pyroxasulfone with a 2 wt % solution of TWEEN® (polyoxyethylenesorbitan fatty acid ester, manufactured by MP Biomedicals) in dimethylformamide, followed by mixing with deionized water. After applying the spray liquid, the plants were placed in a greenhouse for a week. A herbicidal effect was evaluated by classifying the effect into 101 stages from 0 (no effect) to 100 (completely dead).
(§2) The expected value of the herbicidal effect in the case of mixed use was calculated from the result of the herbicidal effect in the case of single use of each of the compounds (the value of A or B) according to the formula of Colby ((expected value)=100−(100−A)×(100−B)/100).

[2] = tested on: Setaria faberi; assay: as above; type: in vivo, akinoenokorogusa (giant foxtail; Setaria faberi); conditions: one week after spray
Procedure: as §1, §2

[3] = pyroxasulfone 10 g/ha alone, scale 0 to 100
[4] = pyroxasulfone 100 g/ha alone, scale 0 to 100
[5] = Compound X 5 g/ha alone, scale 0 (no effect) to 100 (completely dead)
[6] = Compound X 10 g/ha alone, scale 0 to 100

Structure (SMILES) | Herbicidal effect on Echinochloa crus-galli (observed value) [1, 3] | Herbicidal effect on Echinochloa crus-galli (observed value) [1, 4] | Herbicidal effect on Setaria faberi (observed value) [2, 3] | Herbicidal effect on Setaria faberi (observed value) [2, 4] | Herbicidal effect on Echinochloa crus-galli (observed value) [1, 5] | Herbicidal effect on Echinochloa crus-galli (observed value) [1, 6] | Herbicidal effect on Setaria faberi (observed value) [2, 5] | Herbicidal effect on Setaria faberi (observed value) [2, 6]
Cn1nc(C(F)(F)F)c(CS(=O)(=O)C2=NOC(C)(C)C2)c1OC(F)F [pyroxasulfone] | 0 | 0 | 0 | 0 | – | – | – | –
CCOC(=O)COc1ncccc1Oc1cc(-n2c(=O)cc(C(F)(F)F)n(C)c2=O)c(F)cc1Cl [Compound X, ethyl [3-[2-chloro-4-fluoro-5-(1-methyl-6-trifluoromethyl-2,4-dioxo-1,2,3,4-tetrahydropyrimidin-3-yl)phenoxy]-2-pyridyloxy]acetate] | – | – | – | – | 20 | 35 | 30 | 45

Reference: patent publication US10624347B2, “Herbicidal composition and method for controlling weeds” (Sumitomo Chemical Company, Limited, priority 2016, dated 2020)
